Laboratory results from publication PMC7392643, “Antibiotic fidaxomicin is an RdRp inhibitor as a potential new therapeutic agent against Zika virus” (BMC Medicine, 2020).

Tests used:
in vitro = settings: African green monkey
Method: Cell viability was detected by the 3-(4,5-dimethyl-2-thiazolyl)-2,5-diphenyl-2H-tetrazolium bromide (MTT) assay according to a previously described method [48]. Briefly, cells were seeded in 96-well plates at a density of 1 × 10^4 cells per well and cultured at 37 °C for 24 h, followed by exposure to the serially diluted fidaxomicin or ribavirin separately for 48 h. Cell survival rate was determined by MTT reduction assay according to the manufacturer’s protocol (Invitrogen). The 50% cytotoxic concentration (CC50) was defined as the compound concentration required to inhibit the cell growth by 50% compared with the control assay. The assay was performed in triplicates in three independent experiments.

ZIKV MR766 strain = test: In vitro antiviral assay, plaque assay, ZIKV MR766; format: cell-based; settings: Zika virus, 48 h
Method: Various cell lines, including SNB19 (6 × 10^4/well, 10% FBS DMEM), A172 (7 × 10^4/well, 10% FBS DMEM), Vero (6 × 10^4/well 10% FBS DMEM), Huh7 (7 × 10^4/well, 10% FBS DMEM), HUVECs (7 × 10^4/well, 15% FBS M199 medium supplemented with 2 mM L-glutamine, 0.02 mg/mL endothelial cell growth supplement, and 0.05 mg/mL heparin), and A549 (6 × 10^4/well, 5% FBS DMEM), were plated in 12-well plates and allowed to attach overnight, followed by infection with ZIKV (ZG-01 strain or MR766 strain, respectively, at indicated MOI) in the presence of different concentrations of fidaxomicin, ribavirin, or vehicle control for 1 h, followed by two washes with 1 × PBS and incubated with fresh medium (without virus) consisting of corresponding concentrations of the compounds for further 48 h. The cell supernatants were collected to quantify ZIKV infection by plaque assay as previously described [47] or by RT-qPCR.

ZIKV RdRp protein = target: T1, ZIKV RdRp protein (Zika virus, UniProt A0A024B7W1); test: SPR (BIAcore) binding to ZIKV RdRp protein; settings: qualitative
T1 construct: RdRp (amino acids 272 to 903); His tag (8x histidine) (N); made in house; host or cells: Escherichia coli (Rosetta)
Method: (§1) The cDNA fragment of ZIKV (ZG-01 strain) NS5 (amino acids 1 to 903), RdRp (amino acids 272 to 903), or DENV2 NS5 (amino acids 1 to 900) containing an N-terminal His tag sequence was cloned into a pET-30a-mutant vector. For protein expression, the plasmids were transformed into Rosetta™ competent cells (TIANGEN BIOTECH Co., Ltd., Beijing, China), respectively. […] Mass spectrometry was performed by Shanghai Applied Protein Technology Co. Ltd. (Shanghai, China). The concentration of a targeted protein was measured by SDS-PAGE using BSA (Sigma, St. Louis, MO) as a standard.
(§2) Surface plasmon resonance (SPR) experiments were performed in a BIAcore T100 device (BIAcore Inc., Uppsala, Sweden) using CM5 sensor chips (General Electric Company, GE) according to the protocol provided by the manufacturer. Briefly, recombinant ZIKV NS5 protein, RdRp protein, or DENV2 NS5 protein was immobilized on a CM5 chip, respectively. Different concentrations of fidaxomicin or ribavirin were injected at a flow rate of 30 μL/min for 3 min. Subsequently, data were collected for a 3-min association followed by a 20-min dissociation. The chip was regenerated by injecting 10 μL of 15 mM NaOH for 20 s. All procedures were run in 1% DMSO PBS-P20 (GE) as a running buffer. The binding kinetics was analyzed with the software BIAevaluation version 3.1 using a 1:1 Langmuir binding model. The Kd was calculated as previously described.

ZIKV ZG-01 strain = test: In vitro antiviral assay, plaque assay, ZIKV ZG-01; settings: for EC50 / EC90: Zika virus
Method: The anti-ZIKV activity of fidaxomicin and ribavirin was evaluated in vitro by plaque assay. Various cell lines, including SNB19 (6 × 10^4/well, 10% FBS DMEM), A172 (7 × 10^4/well, 10% FBS DMEM), Vero (6 × 10^4/well 10% FBS DMEM), Huh7 (7 × 10^4/well, 10% FBS DMEM), HUVECs (7 × 10^4/well, 15% FBS M199 medium supplemented with 2 mM L-glutamine, 0.02 mg/mL endothelial cell growth supplement, and 0.05 mg/mL heparin), and A549 (6 × 10^4/well, 5% FBS DMEM), were plated in 12-well plates and allowed to attach overnight, followed by infection with ZIKV (ZG-01 strain or MR766 strain, respectively, at indicated MOI) in the presence of different concentrations of fidaxomicin, ribavirin, or vehicle control for 1 h, followed by two washes with 1 × PBS and incubated with fresh medium (without virus) consisting of corresponding concentrations of the compounds for further 48 h. The cell supernatants were collected to quantify ZIKV infection by plaque assay as previously described or by RT-qPCR. […] The anti-DENV activity of fidaxomicin was evaluated in vitro by RT-qPCR.

[1] = target: T2, ZIKV NS5 full-length protein (Zika virus, UniProt A0A024B7W1); test: SPR (BIAcore) binding to ZIKV NS5 full-length protein; settings: qualitative
T2 construct: NS5 (amino acids 1 to 903); His tag (8x histidine) (N); made in house; host or cells: Escherichia coli (Rosetta)
Method: as §1
as §2, with “All procedures were run in 1% DMSO PBS-P20 (GE) as a running buffer.” left out

T2 sequence (A0A024B7W1 2521-3423): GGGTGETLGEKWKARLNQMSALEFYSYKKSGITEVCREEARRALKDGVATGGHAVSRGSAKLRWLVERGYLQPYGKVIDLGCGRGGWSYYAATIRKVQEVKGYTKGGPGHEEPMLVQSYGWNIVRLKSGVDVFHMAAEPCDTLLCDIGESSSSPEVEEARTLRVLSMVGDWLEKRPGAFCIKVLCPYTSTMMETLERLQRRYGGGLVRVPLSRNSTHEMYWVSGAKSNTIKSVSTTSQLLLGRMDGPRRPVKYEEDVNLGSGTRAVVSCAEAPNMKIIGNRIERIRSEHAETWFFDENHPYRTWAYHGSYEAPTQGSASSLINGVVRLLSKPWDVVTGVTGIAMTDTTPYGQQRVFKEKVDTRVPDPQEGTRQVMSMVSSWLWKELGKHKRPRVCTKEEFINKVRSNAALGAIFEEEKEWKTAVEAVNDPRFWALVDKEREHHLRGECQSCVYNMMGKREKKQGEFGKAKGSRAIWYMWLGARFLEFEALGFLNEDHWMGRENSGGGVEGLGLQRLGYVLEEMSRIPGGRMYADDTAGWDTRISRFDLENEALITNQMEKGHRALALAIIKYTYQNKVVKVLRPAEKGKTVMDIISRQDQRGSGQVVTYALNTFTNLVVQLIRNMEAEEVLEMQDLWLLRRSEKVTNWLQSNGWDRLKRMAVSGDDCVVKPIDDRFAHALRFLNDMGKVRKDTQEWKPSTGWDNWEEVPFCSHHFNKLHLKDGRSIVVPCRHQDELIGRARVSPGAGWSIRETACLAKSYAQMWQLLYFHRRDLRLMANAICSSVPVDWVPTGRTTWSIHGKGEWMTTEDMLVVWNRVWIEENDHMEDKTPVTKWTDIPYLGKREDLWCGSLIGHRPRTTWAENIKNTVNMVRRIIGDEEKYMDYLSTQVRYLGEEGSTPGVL
T1 sequence (A0A024B7W1 2792-3423): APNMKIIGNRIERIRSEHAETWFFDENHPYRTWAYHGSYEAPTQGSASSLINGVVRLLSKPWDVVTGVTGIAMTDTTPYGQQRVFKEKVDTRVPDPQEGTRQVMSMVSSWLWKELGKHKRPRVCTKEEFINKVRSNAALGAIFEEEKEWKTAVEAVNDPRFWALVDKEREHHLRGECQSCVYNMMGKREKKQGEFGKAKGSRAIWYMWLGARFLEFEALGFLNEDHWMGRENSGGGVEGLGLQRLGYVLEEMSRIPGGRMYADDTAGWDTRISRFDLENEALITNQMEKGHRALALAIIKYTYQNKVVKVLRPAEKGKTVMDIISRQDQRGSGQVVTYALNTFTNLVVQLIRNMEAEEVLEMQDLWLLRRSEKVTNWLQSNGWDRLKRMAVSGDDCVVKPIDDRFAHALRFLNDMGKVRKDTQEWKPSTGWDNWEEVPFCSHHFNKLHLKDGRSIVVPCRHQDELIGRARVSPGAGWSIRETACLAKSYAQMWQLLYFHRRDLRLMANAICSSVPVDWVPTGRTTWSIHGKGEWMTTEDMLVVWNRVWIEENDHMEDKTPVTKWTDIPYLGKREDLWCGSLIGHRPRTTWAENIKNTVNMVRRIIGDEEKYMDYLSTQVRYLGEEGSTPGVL

EC50 (ZIKV MR766 strain; A549 cells): 35.2 ± 5.2 µM
EC90 (ZIKV MR766 strain; A549 cells): 74.6 ± 8.5 µM
EC50 (ZIKV MR766 strain; Huh-7, Huh7 cells): 15.6 ± 2.1 µM
EC90 (ZIKV MR766 strain; Huh-7, Huh7 cells): 58.3 ± 3.2 µM
EC50 (ZIKV MR766 strain; SNB-19, SNB19 cells): > 100 µM
EC90 (ZIKV MR766 strain; SNB-19, SNB19 cells): > 100 µM
EC50 (ZIKV MR766 strain; Vero cells): > 100 µM
EC90 (ZIKV MR766 strain; Vero cells): > 100 µM
binding to ZIKV RdRp protein (SPR) (ZIKV RdRp protein): weak
EC50 (ZIKV ZG-01 strain; A549, 48 h): 33.2 ± 3.4 µM
EC90 (ZIKV ZG-01 strain; A549, 48 h): 71.6 ± 6.2 µM
EC50 (ZIKV ZG-01 strain; Huh-7, 48 h): 12.7 ± 2.3 µM
EC90 (ZIKV ZG-01 strain; Huh-7, 48 h): 54.3 ± 3.5 µM
EC50 (ZIKV ZG-01 strain; SNB-19, 48 h): > 100 µM
EC90 (ZIKV ZG-01 strain; SNB-19, 48 h): > 100 µM
EC50 (ZIKV ZG-01 strain; Vero, 48 h): > 100 µM
EC90 (ZIKV ZG-01 strain; Vero, 48 h): > 100 µM
binding to ZIKV NS5 protein (SPR) [1]: very weak interaction
Compound: NC(=O)c1ncn([C@@H]2O[C@H](CO)[C@@H](O)[C@H]2O)n1 [Ribavirin, ribavirin]
CC50 at 48 h (in vitro): 486 ± 20.1 µM
efficacy against ZIKV infection under non-cytotoxic concentration (ZIKV ZG-01 strain; SNB19 cells): far less effective
